Data: ChEMBL document CHEMBL1201862, “PubChem BioAssay data set” (2004)
Calls of active or inactive are those of the source.

Tests used:
[1] = microbe, parasite or virus in culture; assay type: functional; settings: Mycobacterium tuberculosis
Beta-galactosidase = Beta-galactosidase (Escherichia coli, UniProt Q8VNN2); assay: beta-galactosidase enzyme inhibitors and activators, dose response, artefact control for CCR6 antagonist project, biochemical, E. coli enzyme, set 3 (AID 504712); assay type: functional
[2] = target: T1, Heat shock factor protein 1 (Mus musculus, UniProt P38532); assay: HSF1 potentiators in luciferase reporter cells, confirmation, cell-based, NIH3T3, luminescence, dose retest (AID 435004); assay type: functional;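 also: stress induced by proteasome inhibitor MG132 added 30 min after compound; luciferase reporter driven by HSF1 response element in NIH3T3 cells; actives raise luminescence as potentiators of the MG132 stress response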
T1 sequence (P38532 whole entry): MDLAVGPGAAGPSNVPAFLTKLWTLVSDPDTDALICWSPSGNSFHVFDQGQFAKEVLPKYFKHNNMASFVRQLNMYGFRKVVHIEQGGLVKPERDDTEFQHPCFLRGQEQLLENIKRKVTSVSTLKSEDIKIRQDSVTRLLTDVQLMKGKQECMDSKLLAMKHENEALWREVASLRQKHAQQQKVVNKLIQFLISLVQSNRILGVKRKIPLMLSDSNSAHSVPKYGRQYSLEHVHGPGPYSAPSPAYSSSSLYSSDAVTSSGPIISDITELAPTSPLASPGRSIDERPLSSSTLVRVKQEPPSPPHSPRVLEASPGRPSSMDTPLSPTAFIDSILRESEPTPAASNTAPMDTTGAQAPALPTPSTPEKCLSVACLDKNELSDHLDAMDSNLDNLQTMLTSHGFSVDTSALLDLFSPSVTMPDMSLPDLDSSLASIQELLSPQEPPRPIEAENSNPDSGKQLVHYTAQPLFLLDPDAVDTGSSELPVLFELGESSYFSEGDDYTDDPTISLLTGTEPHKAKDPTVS

[3] = target: Heat shock protein HSP 90-alpha (Homo sapiens, UniProt P07900); assay type: functional, organism-based
INS1 = assay: beta cell apoptosis inhibitors, cytokine rescue, dose response, luminescence, retest (AID 449756); assay type: functional, cell-based; settings: Rattus norvegicus;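 also: cell death triggered by IL-1 beta plus TNF-alpha plus IFN-gamma mixture; protective hits raise ATP signal compared with cytokine alone wells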
[4] = Shn3 3'UTR reporter inhibitors, dose response, cell-based, Clone20 osteoblasts, firefly luciferase, cherry-picked (AID 624132); assay type: functional;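 also: firefly luciferase luminescence from reporter carrying the Shn3 3'UTR in osteoblasts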
[5] = HepG2 cell cytotoxicity, dose response, cytotoxicity control for Shn3 inhibitor project, CellTiter-Glo, cherry-picked (AID 624134); assay type: functional, cell-based
[6] = control 3'UTR Renilla luciferase suppression, dose response, counter-screen for Shn3 inhibitor project, cell-based, Clone20-Shn3RL, cherry-picked (AID 624133); assay type: functional
[7] = HeLa cell cytotoxicity, dose response, cytotoxicity control for MgcRacGAP inhibitor project (AID 624300); assay type: functional
[8] = target: T2, Rac GTPase-activating protein 1 (Homo sapiens, UniProt Q9H0H5); assay: MgcRacGAP GTPase-activating activity inhibitors, confirmation, biochemical, ADP Hunter fluorescence, primary and confirmatory (AID 624330); assay type: functional
T2 sequence (Q9H0H5 whole entry): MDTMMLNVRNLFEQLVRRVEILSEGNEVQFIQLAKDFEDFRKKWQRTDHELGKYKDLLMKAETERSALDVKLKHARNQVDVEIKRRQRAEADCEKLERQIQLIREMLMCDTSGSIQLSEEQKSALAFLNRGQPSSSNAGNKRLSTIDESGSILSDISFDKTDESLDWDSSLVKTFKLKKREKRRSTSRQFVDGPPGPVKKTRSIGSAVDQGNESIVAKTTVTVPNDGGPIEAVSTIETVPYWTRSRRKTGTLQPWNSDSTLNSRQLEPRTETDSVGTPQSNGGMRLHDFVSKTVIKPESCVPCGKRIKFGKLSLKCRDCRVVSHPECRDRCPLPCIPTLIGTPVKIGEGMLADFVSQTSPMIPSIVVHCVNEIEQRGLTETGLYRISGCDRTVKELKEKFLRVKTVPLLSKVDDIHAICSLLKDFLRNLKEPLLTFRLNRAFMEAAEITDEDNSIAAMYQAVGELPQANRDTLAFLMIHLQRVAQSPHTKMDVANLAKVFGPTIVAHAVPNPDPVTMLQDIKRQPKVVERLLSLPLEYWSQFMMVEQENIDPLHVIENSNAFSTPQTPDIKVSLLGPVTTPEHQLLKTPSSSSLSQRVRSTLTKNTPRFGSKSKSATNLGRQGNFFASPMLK

Estrogen receptor = target: T3, Estrogen receptor (Homo sapiens, UniProt P03372);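 also: potency for inhibiting coactivator peptide recruitment to the receptor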
T3 sequence (P03372 whole entry): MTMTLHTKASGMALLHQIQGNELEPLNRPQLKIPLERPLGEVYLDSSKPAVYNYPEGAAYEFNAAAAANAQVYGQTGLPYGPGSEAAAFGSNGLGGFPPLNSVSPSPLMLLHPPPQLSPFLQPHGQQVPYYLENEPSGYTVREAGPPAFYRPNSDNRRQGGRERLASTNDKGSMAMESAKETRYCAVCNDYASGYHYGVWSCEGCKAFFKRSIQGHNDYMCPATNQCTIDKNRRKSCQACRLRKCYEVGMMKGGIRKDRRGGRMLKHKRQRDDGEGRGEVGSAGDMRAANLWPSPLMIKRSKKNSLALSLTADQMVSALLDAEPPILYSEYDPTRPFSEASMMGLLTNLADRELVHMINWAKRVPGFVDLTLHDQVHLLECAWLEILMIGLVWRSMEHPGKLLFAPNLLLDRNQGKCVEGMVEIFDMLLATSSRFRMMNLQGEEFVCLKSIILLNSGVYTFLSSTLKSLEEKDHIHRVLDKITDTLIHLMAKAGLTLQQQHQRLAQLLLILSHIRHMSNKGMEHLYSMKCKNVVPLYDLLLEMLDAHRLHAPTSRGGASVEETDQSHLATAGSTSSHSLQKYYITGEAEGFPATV

Bcl-2-related protein A1 = target: T4, Bcl-2-related protein A1 (Mus musculus, UniProt Q07440); assay type: functional;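 also: confirmatory dose–response counterscreen on Bfl-1, used to check hits from a UBC13 polyubiquitin inhibitor campaign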
T4 sequence (Q07440 whole entry): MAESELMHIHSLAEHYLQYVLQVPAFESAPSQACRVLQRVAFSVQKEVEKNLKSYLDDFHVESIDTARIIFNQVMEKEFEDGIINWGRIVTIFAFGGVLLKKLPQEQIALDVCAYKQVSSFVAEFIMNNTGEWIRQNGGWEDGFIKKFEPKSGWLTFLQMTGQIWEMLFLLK

[9] = target: T5, Ubiquitin-conjugating enzyme E2 N (Homo sapiens, UniProt P61088); assay type: functional;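 also: Dose-response confirmation in a TR-FRET assay detecting UBC13-driven polyubiquitin chain formation, inhibition measured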
T5 sequence (P61088 whole entry): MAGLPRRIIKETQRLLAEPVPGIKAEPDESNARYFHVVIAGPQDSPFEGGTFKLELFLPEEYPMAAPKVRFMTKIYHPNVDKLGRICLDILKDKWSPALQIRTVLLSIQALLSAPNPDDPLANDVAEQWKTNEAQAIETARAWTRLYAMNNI

H9c2 = assay: cells; assay type: functional, cell-based; settings: Rattus norvegicus, H9c2, Myocardium;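 also: confirmatory concentration-response retest of ultra-high-throughput screening hits for modulation of myocardial damage; cell death induced by hydrogen peroxide oxidative stress; compound pretreatment for 60 min then peroxide exposure for 2 h; potency is for protecting the cells against peroxide damage rather than for killing them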
[10] = target: DNA dC->dU-editing enzyme APOBEC-3A (Homo sapiens, UniProt P31941); assay: APOBEC3A DNA deaminase inhibitors, dose response, biochemical (AID 504722); assay type: functional
[11] = target: DNA dC->dU-editing enzyme APOBEC-3G (Homo sapiens, UniProt Q9HC16); assay: Dose Response confirmation of small molecule APOBEC3G DNA Deaminase Inhibitors via a fluorescence-based single-stranded DNA deaminase assay. [Related pubchem assays (depositor defined):AID493012, AID493028]; assay type: functional
Trypsin = Trypsin (Sus scrofa, UniProt P00761); assay: porcine trypsin inhibitors, dose response, selectivity assay for Rce1 protease inhibitor project, biochemical, quenched peptide fluorescence, cherry-pick (AID 488789)
CAAX prenyl protease 2 = target: T6, CAAX prenyl protease 2 (Saccharomyces cerevisiae S288c, UniProt Q03530); assay type: biochemical
T6 sequence (Q03530 whole entry): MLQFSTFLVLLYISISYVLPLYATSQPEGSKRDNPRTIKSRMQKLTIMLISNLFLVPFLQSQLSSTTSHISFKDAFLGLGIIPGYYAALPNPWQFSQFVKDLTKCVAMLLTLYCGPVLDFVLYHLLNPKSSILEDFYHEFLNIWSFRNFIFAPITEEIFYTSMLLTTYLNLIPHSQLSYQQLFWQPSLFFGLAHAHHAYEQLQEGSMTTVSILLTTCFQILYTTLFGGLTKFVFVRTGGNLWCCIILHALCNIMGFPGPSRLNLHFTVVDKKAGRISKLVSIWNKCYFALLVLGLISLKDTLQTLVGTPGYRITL

[12] = target: G-protein coupled receptor 55 (Homo sapiens, UniProt Q9Y2T6); assay: GPR55 agonists via beta-arrestin recruitment, primary screen, imaging, U2OS cells, beta-arrestin-GFP redistribution (AID 1961); assay type: functional
G-protein coupled receptor 55, sequence (Q9Y2T6 whole entry): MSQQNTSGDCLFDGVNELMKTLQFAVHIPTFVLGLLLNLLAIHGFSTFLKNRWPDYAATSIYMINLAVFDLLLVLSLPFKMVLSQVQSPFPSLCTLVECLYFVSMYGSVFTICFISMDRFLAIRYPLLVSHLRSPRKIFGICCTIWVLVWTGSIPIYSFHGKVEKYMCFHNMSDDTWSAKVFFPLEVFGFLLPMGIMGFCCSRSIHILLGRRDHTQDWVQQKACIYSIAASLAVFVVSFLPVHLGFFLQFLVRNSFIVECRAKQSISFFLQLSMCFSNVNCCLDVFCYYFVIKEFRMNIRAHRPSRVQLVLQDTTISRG

Beta-galactosidase, sequence (Q8VNN2 whole entry): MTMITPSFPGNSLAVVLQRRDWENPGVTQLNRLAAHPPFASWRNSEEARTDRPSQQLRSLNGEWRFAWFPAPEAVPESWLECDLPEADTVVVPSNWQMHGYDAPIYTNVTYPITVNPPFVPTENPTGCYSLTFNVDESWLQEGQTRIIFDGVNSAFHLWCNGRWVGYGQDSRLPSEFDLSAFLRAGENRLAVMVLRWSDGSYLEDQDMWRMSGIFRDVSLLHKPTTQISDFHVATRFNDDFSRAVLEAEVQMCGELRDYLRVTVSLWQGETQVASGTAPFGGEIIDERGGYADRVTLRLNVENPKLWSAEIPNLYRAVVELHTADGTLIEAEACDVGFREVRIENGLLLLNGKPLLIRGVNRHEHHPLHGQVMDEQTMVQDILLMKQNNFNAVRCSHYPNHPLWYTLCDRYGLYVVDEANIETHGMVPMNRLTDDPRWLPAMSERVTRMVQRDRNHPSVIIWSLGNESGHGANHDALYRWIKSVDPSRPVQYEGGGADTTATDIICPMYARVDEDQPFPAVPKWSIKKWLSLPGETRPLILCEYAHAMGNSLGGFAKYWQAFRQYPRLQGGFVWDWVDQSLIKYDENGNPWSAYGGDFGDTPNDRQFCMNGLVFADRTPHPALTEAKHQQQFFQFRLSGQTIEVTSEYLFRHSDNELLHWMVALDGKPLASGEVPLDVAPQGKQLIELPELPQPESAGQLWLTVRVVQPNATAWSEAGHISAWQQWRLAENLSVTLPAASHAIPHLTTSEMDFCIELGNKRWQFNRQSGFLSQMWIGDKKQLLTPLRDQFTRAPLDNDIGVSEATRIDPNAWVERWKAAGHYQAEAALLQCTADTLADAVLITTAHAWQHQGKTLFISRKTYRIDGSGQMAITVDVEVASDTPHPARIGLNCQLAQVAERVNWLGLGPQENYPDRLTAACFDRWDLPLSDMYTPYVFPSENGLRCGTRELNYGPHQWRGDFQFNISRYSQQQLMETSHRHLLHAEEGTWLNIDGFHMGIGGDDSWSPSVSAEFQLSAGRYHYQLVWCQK
DNA dC->dU-editing enzyme APOBEC-3A, sequence (P31941 whole entry): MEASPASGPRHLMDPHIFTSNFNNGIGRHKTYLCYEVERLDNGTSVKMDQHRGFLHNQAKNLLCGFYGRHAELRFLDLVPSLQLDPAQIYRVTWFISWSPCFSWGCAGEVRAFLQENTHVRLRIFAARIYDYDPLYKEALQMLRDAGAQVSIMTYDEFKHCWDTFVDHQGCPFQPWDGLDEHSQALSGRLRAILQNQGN
Trypsin, sequence (P00761 whole entry): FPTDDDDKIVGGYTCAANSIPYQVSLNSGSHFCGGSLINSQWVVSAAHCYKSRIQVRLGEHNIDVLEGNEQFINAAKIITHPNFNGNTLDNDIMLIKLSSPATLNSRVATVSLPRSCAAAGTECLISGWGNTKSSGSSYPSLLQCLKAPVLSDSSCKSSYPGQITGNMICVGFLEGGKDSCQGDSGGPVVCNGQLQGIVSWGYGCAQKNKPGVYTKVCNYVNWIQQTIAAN
DNA dC->dU-editing enzyme APOBEC-3G, sequence (Q9HC16 whole entry): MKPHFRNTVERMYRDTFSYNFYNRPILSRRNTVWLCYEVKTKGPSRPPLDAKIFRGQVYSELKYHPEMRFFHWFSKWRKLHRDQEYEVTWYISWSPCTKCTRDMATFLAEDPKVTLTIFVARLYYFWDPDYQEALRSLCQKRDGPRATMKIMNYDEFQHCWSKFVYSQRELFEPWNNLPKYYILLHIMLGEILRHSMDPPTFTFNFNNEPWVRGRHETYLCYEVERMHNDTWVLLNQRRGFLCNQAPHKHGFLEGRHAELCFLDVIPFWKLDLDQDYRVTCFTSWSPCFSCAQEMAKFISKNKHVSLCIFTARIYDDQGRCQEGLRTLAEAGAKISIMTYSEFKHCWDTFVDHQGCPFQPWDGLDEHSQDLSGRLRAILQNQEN

For `CN(c1ccccc1)c1ccc(/C=C/[N+](=O)[O-])cc1`, the CC50 [1] was 25.9 µM (active), the IC50 (Beta-galactosidase) was > 66.6 µM (inactive) and the EC50 [2] was 5.04 µM (inconclusive). For the same compound, the AC50 [3] was 8.67 µM (active), the AC50 (INS1) was 6.67 µM (active) and the AC50 [4] was 5.79 µM (active). The AC50 [5] was 18 µM (active), the AC50 [6] was 17.5 µM (active) and the CC50 [7] was 38.5 µM (active). The IC50 [8] was 23.3 µM (active).

In the case of `CN(C)c1nc(N/N=C\c2ccc(Cl)c([N+](=O)[O-])c2)nc(Nc2ccc(F)cc2)n1`, the IC50 (Estrogen receptor) was > 50 µM (not active).

For `O=C(CSc1nc2ccsc2c(=O)n1Cc1ccc(C(=O)O)cc1)NCC1CCCO1` (configuration not stated), the IC50 (Bcl-2-related protein A1) was > 20 µM (inactive) and the IC50 [9] was 17.5 µM (active).

With `COc1cccc(-c2nnc(NC(=O)c3ccc(Cl)s3)o2)c1` the IC50 (Beta-galactosidase) was > 66.6 µM (inactive) and the IC50 (H9c2) was > 79 µM (inactive).

For `CCCc1cc(-c2n[nH]c(=S)n2CC)cs1`, the IC50 [10] was > 100 µM (inactive) and the IC50 [11] was 6.08 µM (active).

With `O=C1CSC(c2cn(-c3ccccc3)nc2-c2cc3ccccc3oc2=O)N1Cc1ccco1` (configuration not stated) the AC50 (Trypsin) was 9.09 µM (active) and the AC50 (CAAX prenyl protease 2) was 30.8 µM (active).

In the case of `CCN(CC)CCn1c(NC(=O)c2ccccc2O)nc2ccccc21`, the IC50 (Beta-galactosidase) was > 66.6 µM (inactive).

In the case of `O=C(Nc1cc(S(=O)(=O)N2CCOCC2)ccc1N1CCOCC1)c1cc2c(s1)CCC2`, the EC50 [12] was 6.36 µM (active).

In the case of `Cc1nc(SCc2ccc(F)cc2)c2oc3ccccc3c2n1`, the EC50 [12] was > 32 µM (inactive).
